Where two headings read alike, the source gives them in different places.
Key:
[1] = tested on: L. tropica promastigotes (MHOM/IT/2012/ISS3130); experiment: promastigote susceptibility MTT assay, L. tropica; format: cell-based; conditions: for IC50: Leishmania tropica, promastigote stage, 72 h, MTT, mean ± SD of three experiments; for SIp (L. tropica): SIp = IC50 HMEC-1/IC50 L. tropica promastigotes
Experimental: (§1) Promastigote stage of L. infantum strain MHOM/TN/80/IPT1 and L. tropica (MHOM/IT/2012/ISS3130) were cultured in Schneider’s Drosophila medium (Lonza) supplemented with 10% heat-inactivated fetal calf serum (HyClone) at 24 °C.
(§2) The complete medium used for antileishmanial activity assay was RPMI (EuroClone) supplemented with 10% heat-inactivated fetal calf serum (EuroClone), 20 mM Hepes, and 2 mM L-glutamine. To estimate the 50% inhibitory concentration (IC50), the MTT (3-[4.5-dimethylthiazol-2-yl]-2.5-diphenyltetrazolium bromide) method was used. Compounds were dissolved in DMSO and then diluted with medium to achieve the required concentrations. Drugs were placed in 96-well round-bottom microplates and seven serial dilutions made. Amphotericin B was used as the reference anti-leishmanial drug. Parasites were diluted in complete medium to 5 × 10^6 parasites/mL and 100 μL of the suspension was seeded into the plates, incubated at 24 °C for 72 h and then 20 µL of MTT solution (5 mg/mL) was added into each well for 3 h. The plates were then centrifuged, the supernatants discarded and the resulting pellets dissolved in 100 µL of lysing buffer consisting of 20% (w/v) of a solution of SDS (Sigma), 40% of N,N-dimethylformamide (Merck) in H2O. The absorbance was measured spectrophotometrically at a test wavelength of 550 nm and a reference wavelength of 650 nm. The results are expressed as IC50 which is the dose of compound necessary to inhibit parasite growth by 50%; each IC50 value is the mean ± standard deviation of separate experiments performed in duplicate.

[2] = tested on: L. infantum promastigotes (strain MHOM/TN/80/IPT1); experiment: promastigote susceptibility MTT assay, L. infantum; format: cell-based; conditions: for IC50: Leishmania infantum, promastigote stage, 72 h, MTT, mean ± SD of three experiments; for SIp (L. infantum): SIp = IC50 HMEC-1/IC50 L. infantum promastigotes
Experimental: as §1, §2

[3] = tested on: L. infantum amastigotes; experiment: intracellular amastigote susceptibility assay in THP-1 macrophages; format: cell-based; conditions: for IC50: Leishmania infantum, intracellular amastigotes in THP-1 macrophages, 72 h, mean of two experiments in triplicate; for SIa: SIa = IC50 HMEC-1/IC50 L. infantum amastigotes
Experimental: Cells were washed and infected with metacyclic L. infantum promastigotes at a macrophage/promastigote ratio of 1/10 for 24 h. Cell monolayers were then washed and incubated in the presence of test compounds for 72 h. Slides were fixed with methanol and stained with Giemsa. The percentage of infected macrophages in treated and non-treated cells was determined by light microscopy.

[4] = tested on: P. falciparum W2 (CQ-resistant) strain; experiment: antiplasmodial pLDH drug susceptibility assay, asexual parasites, W2 strain; format: cell-based; conditions: for IC50: Plasmodium falciparum, read-out: W2 IC50; for SI W2: SI = IC50 HMEC-1/IC50 P. falciparum W2
Experimental: (§3) P. falciparum cultures were carried out according to Trager and Jensen with slight modifications. The CQ-sensitive strain D10 and the CQ-resistant strain W2 were maintained at 5% hematocrit (human type A-positive red blood cells) in RPMI 1640 (EuroClone, Celbio) medium with the addition of 1% AlbuMax (Invitrogen, Milan, Italy), 0.01% hypoxanthine, 20 mM Hepes, and 2 mM glutamine at 37 °C in a standard gas mixture (1% O2, 5% CO2, and 94% N2). […] Drugs were placed in 96-well flat-bottomed microplates and serial dilutions made. Asynchronous cultures with parasitaemia of 1%–1.5% and 1% final hematocrit were aliquoted into the plates and incubated for 72 h at 37 °C. Parasite growth was determined spectrophotometrically (OD650) by measuring the activity of the parasite lactate dehydrogenase (pLDH), according to a modified version of the method of Makler in control and drug-treated cultures. The antiplasmodial activity is expressed as 50% inhibitory concentrations (IC50); each IC50 value is the mean ± standard deviation of at least three separate experiments performed in duplicate.

[5] = tested on: Pf gametocytes stage V 3D7elo1-pfs16-CBG99; experiment: gametocyte susceptibility assay (luciferase viability); format: cell-based, P. falciparum; conditions: Plasmodium falciparum, 72 h, mean ± SD of three experiments
Experimental: The transgenic P. falciparum 3D7 strain 3D7elo1-pfs16-CBG99 expressing the Pyrophorus plagiophthalamus CBG99 luciferase under a gametocyte specific promoter was used in all the experiments. Parasites were cultured and gametocytes obtained as previously described. Late-stage gametocytes were exposed to compounds at day 11 after N-acetylglucosamine (NAG) addition. Gametocytes stages were counted in Giemsa stained smears and the percentage of stage V gametocytes was higher than 80%. Compounds were prepared by serial dilution, in 96-well plate, in complete medium. Plates were incubated for 72 h at 37 °C under 1% O2, 5% CO2, 94% N2 atmosphere. Luciferase activity was taken as measure of gametocytes viability, as previously described. Briefly, drug-treated gametocyte samples at 2% haematocrit were transferred to 96-well black microplates and D-luciferin (1 mM in citrate buffer 0.1 M, pH 5.5) was added at a 1:1 volume ratio. Luminescence measurements were performed after 10 min with 500 ms integration time using a Sinergy 4 (Biotek) microplate reader. The IC50 was extrapolated from the non-linear regression analysis of the concentration–response curve.

[6] = tested on: P. falciparum D10 (CQ-sensitive) strain; experiment: antiplasmodial pLDH drug susceptibility assay, asexual parasites, D10 strain; format: cell-based; conditions: for IC50: Plasmodium falciparum, read-out: D10 IC50; for SI D10: SI = IC50 HMEC-1/IC50 P. falciparum D10
Experimental: as §3

[7] = tested on: S. mansoni adult worm pairs; experiment: adult worm pair viability assay (phenotypic score); format: cell-based; conditions: 20 μM, 7 days
From the text: (§4) A Puerto Rican strain of S. mansoni was maintained by passage through albino Biomphalaria glabrata, as the intermediate host, and ICR (CD-1) outbred female mice as previously described. Female 4 to 7-week-old mice (Envigo, Udine, Italy) were infected with 200–400 double sex S. mansoni cercariae by the tail immersion technique. Adult pairs were harvested from mice 7–8 weeks after infection by reversed perfusion of the hepatic portal system and mesenteric veins. For the viability assays, 5 couples were incubated with the compounds in 3 mL DMEM complete tissue culture medium containing 10% FBS for up to 7 days and phenotypic score was assigned as previously described. For egg-treatment, 5 worm pairs were incubated for 48 h in 3 mL complete tissue culture medium; next the parasites were removed and vehicle (DMSO) or compounds 1–3 were added to each plate containing the eggs previously laid in vitro and observed for 72 h as previously reported. Briefly, images were recorded with a BX41 Olympus microscope and a bright field objective 10× served by a SPOT RT 220-3 Diagnostic Instrument Inc camera. Egg maturation/morphological score was assigned based on the Vogel and Prata’ staging system of egg maturation.

[8] = tested on: THP-1 (human acute monocytic leukemia cells); experiment: cytotoxicity MTT assay on THP-1 differentiated into macrophages; format: cell-based; conditions: PMA-differentiated macrophages, mean of two experiments in duplicate
Experimental: (§5) The long-term human microvascular endothelial cell line (HMEC-1) was maintained in MCDB 131 medium (Invitrogen, Milan, Italy) supplemented with 10% fetal calf serum (HyClone, Celbio, Milan, Italy), 10 ng/mL of epidermal growth factor,1 µg/ml of hydrocortisone, 2 mM glutamine and 20 mM Hepes buffer (EuroClone). For the cytotoxicity assays, HMEC-1 were plated at 10^5 cells/mL in 96-well flat bottom microplates. THP-1 cells were plated at 5 × 10^5 cells/mL in 96-well flat bottom microplates and treated with 0.1 μM PMA for 48 h to achieve differentiation into macrophages. Cells were then treated with serial dilutions of test compounds and cell proliferation evaluated using the MTT assay described for promastigotes. The results are expressed as IC50, which is the dose of compound necessary to inhibit cell growth by 50%.

[9] = tested on: HMEC-1 (human microvascular endothelial cells); experiment: cytotoxicity MTT assay on HMEC-1; format: cell-based; conditions: mean ± SD of three experiments in duplicate
Experimental: as §5

[10] = tested on: S. mansoni in vitro laid eggs (IVLEs); experiment: in vitro laid eggs (IVLEs) maturation/morphology assay; format: cell-based; conditions: 72 h
From the text: as §4

[11] = asexual parasites, CQ-resistant W2 strain, 72 h, pLDH, mean ± SD of three experiments in duplicate
[12] = asexual parasites, CQ-sensitive D10 strain, 72 h, pLDH, mean ± SD of three experiments in duplicate

Row | SMILES | IC50 [1] | IC50 [2] | IC50 [3] | SIp (L. tropica) [1] | IC50 [4, 11] | SI W2 [4] | SIp (L. infantum) [2] | IC50 [5] | SIa [3] | SIa ([3]; listed as avarol 3) | IC50 [6, 12] | SI D10 [6] | survival of adult worm pairs [7] | IC50 [8] | IC50 [9] | IC50 ([4]; W2, 72 h) | IC50 ([6]; D10, 72 h) | effect on adult stage viability [7] | effect on egg maturation (IVLEs) ([10]; 5 μM) | effect on egg maturation (IVLEs) ([10]; 20 μM)
1 | C[C@@H]1[C@H](O)[C@@H](C)/C=C/C=C/C=C/C=C/C=C/C=C/C=C/[C@H](O[C@@H]2O[C@H](C)[C@@H](O)[C@H](N)[C@@H]2O)C[C@@H]2O[C@](O)(C[C@@H](O)C[C@@H](O)[C@H](O)CC[C@@H](O)C[C@@H](O)CC(=O)O[C@H]1C)C[C@H](O)[C@H]2C(=O)O [Amphotericin B, reference compound] | 0.17 ± 0.04 µM | 0.2 ± 0.03 µM | 0.189 µM |  |  |  |  |  |  |  |  |  |  |  |  |  |  |  |  | 
2 | CC1=CCC[C@H]2[C@](C)(Cc3cc(O)ccc3O)[C@@H](C)CC[C@]12C [Avarol (3), avarol] | 7.08 ± 1.91 µM | 7.42 ± 0.27 µM | 3.19 µM | 5.2 | 1.1 ± 0.15 µM | 33.5 | 5.0 | 9.3 ± 1.9 µM | 11.6 | greater than 10 | 0.96 ± 0.24 µM | 38.4 | 20% | 31.8 µM | 36.9 ± 5.79 µM |  |  |  |  | 
3 | CC1=CCC[C@H]2[C@](C)(CC3=CC(=O)C=CC3=O)[C@@H](C)CC[C@]12C [Avarone (1), avarone] | 20.3 ± 3.56 µM | 28.2 ± 0.32 µM | 7.64 µM | 3.1 | 2.09 ± 0.52 µM | 29.8 | 2.2 | 15.5 ± 5.26 µM | 8.1 |  | 2.74 ± 0.51 µM | 22.7 |  | > 100 µM | 62.2 ± 1.98 µM |  |  |  |  | 
4 | CC[C@@]1(O)C(=O)OCc2c1cc1n(c2=O)Cc2cc3ccccc3nc2-1 [Camptothecin, reference compound] |  |  |  |  |  |  |  |  |  |  |  |  |  |  | 0.018 µM |  |  |  |  | 
5 | CCN(CC)CCCC(C)Nc1ccnc2cc(Cl)ccc12 (stereo not drawn) [Chloroquine (CQ), Chloroquine, reference compound] |  |  |  |  |  |  |  |  |  |  |  |  |  |  |  | 0.54 µM | 0.04 µM |  |  | 
6 | CN(C)c1ccc2nc3ccc(=[N+](C)C)cc-3sc2c1 [Methylene blue, reference compound] |  |  |  |  |  |  |  | 0.155 ± 0.05 µM |  |  |  |  |  |  |  |  |  |  |  | 
7 | CC1=CCC[C@H]2[C@](C)(CC3=CC(=O)C4=C(C3=O)S(=O)(=O)CCN4)[C@@H](C)CC[C@]12C [Thiazoavarone (2), thiazoavarone] | 9.52 ± 0.32 µM | 8.78 ± 0.26 µM | 4.99 µM | 0.35 | 0.21 ± 0.03 µM | 15.8 | 0.38 | 15 ± 3.19 µM | 0.67 |  | 0.38 ± 0.15 µM | 8.7 |  | 7.41 µM | 3.31 ± 1.53 µM |  |  | poorly effective | impairing eggs maturation | undeveloped and severely damaged eggs

Reference: publication PMC7074381, “Investigating the Antiparasitic Potential of the Marine Sesquiterpene Avarone, Its Reduced Form Avarol, and the Novel Semisynthetic Thiazinoquinone Analogue Thiazoavarone” (Marine Drugs, 2020)
